From patent US20240327334A1, “Covalent Inhibitors As Antiviral Agents” (Enanta Pharmaceuticals, Inc., priority 2022, published 2024)

Tests used:
[1] = tested on: SARS-CoV-2 replicon; experiment: microbe, parasite or virus in culture; type: cell-based; conditions: Severe acute respiratory syndrome coronavirus 2, Huh-7
[2] = biological target: SARS-CoV-2 Papain-like (PLpro) protease (Severe acute respiratory syndrome coronavirus 2, UniProt P0DTD1); experiment: SARS-CoV-2 Papain-like (PLpro) protease biochemical enzyme inhibition assay (ubiquitin-fluorophore substrate, Ub-R110); conditions: Ub-R110 substrate; run in duplicate; read-out: PLpro IC50

| Structure (SMILES) | EC50 [1] | IC50 [2] |
| --- | --- | --- |
| COC(=O)/C=C/CNC(=O)C(=O)NCc1ccccc1C(=O)N[C@H](C)c1cc(-c2cnn(C(F)F)c2)cc(C(F)(F)F)c1 [Example 462] | < 1000 nM | < 100 nM |
| C[C@@H](NC(=O)c1ccccc1CNC(=O)C(=O)NCC#N)c1cc(-c2cnn(C(F)F)c2)cc(C(F)(F)F)c1 [Example 463] | 1000 to 10000 nM | 100 to 1000 nM |
| C[C@@H](NC(=O)c1ccccc1CNC(=O)C(=O)NCC#N)c1cc(-c2ccoc2)cc(C(F)(F)F)c1 [Example 464] | 1000 to 10000 nM | < 100 nM |
| COC(=O)/C=C/CNC(=O)C(=O)NCc1ccccc1C(=O)N[C@H](C)c1cc(-c2ccoc2)cc(C(F)(F)F)c1 [Example 465] | < 1000 nM | < 100 nM |
| C[C@@H](NC(=O)c1ccccc1CNC(=O)C(=O)NCC#N)c1cc(-c2ccco2)cc(C(F)(F)F)c1 [Example 467] | < 1000 nM | < 100 nM |
| C#CCNC(=O)C(=O)NCc1ccccc1C(=O)NC1(c2cc(-c3ccccc3)cc(C(F)(F)F)c2)CC1 [Example 469] | 1000 to 10000 nM | < 100 nM |
| N#CCNC(=O)C(=O)NCc1ccccc1C(=O)NC1(c2cc(-c3cnn(C4CC4)c3)cc(C(F)(F)F)c2)CC1 [Example 470] | 1000 to 10000 nM | < 100 nM |
| C#CCNC(=O)C(=O)NCc1ccccc1C(=O)NC1(c2cc(-c3cnn(C4CC4)c3)cc(C(F)(F)F)c2)CC1 [Example 471] | < 1000 nM | < 100 nM |
| N#CCNC(=O)C(=O)NCc1ccccc1C(=O)NC1(c2cc(-c3cnn(C(F)F)c3)cc(C(F)(F)F)c2)CC1 [Example 472] | > 10000 nM | 100 to 1000 nM |
| C#CCNC(=O)C(=O)NCc1ccccc1C(=O)NC1(c2cc(-c3cnn(C(F)F)c3)cc(C(F)(F)F)c2)CC1 [Example 473] | 1000 to 10000 nM | 100 to 1000 nM |
| Cc1n[nH]c(C)c1-c1cc(C(F)(F)F)cc(C2(NC(=O)c3ccccc3CNC(=O)C(=O)NCC#N)CC2)c1 [Example 476] | 1000 to 10000 nM | 100 to 1000 nM |
| C#CCNC(=O)C(=O)NCc1ccccc1C(=O)NC1(c2cc(-c3c(C)n[nH]c3C)cc(C(F)(F)F)c2)CC1 [Example 477] | < 1000 nM | < 100 nM |
| N#CCNC(=O)C(=O)NCc1ccccc1C(=O)NC1(c2cc(Cl)cc(-n3cccn3)c2)CC1 [Example 480] | 1000 to 10000 nM | < 100 nM |
| C#CCNC(=O)C(=O)NCc1ccccc1C(=O)NC1(c2cc(Cl)cc(-n3cccn3)c2)CC1 [Example 481] | 1000 to 10000 nM | 100 to 1000 nM |
| C#CCNC(=O)C(=O)NCc1ccccc1C(=O)NC1(c2cc(Cl)cc(-c3nnc(C)o3)c2)CC1 [Example 484] | < 1000 nM | < 100 nM |
| C#CCNC(=O)C(=O)NCc1ccccc1C(=O)NC1(c2cc(Cl)cc(-c3cn(C)nc3C)c2)CC1 [Example 485] | < 1000 nM | < 100 nM |
| Cc1nn(C)cc1-c1cc(Cl)cc(C2(NC(=O)c3ccccc3CNC(=O)C(=O)NCC#Cc3nccs3)CC2)c1 [Example 486] | < 1000 nM | < 100 nM |
| O=C(NCC#Cc1nccs1)C(=O)NCc1ccccc1C(=O)NC1(c2cc(Cl)cc(-c3ncco3)c2)CC1 [Example 487] | < 1000 nM | < 100 nM |
| O=C(NCC#Cc1nccs1)C(=O)NCc1ccccc1C(=O)NC1(c2cc(F)cc(-n3cc(C4CC4)cn3)c2)CC1 [Example 489] | < 1000 nM | < 100 nM |
| Cc1nn(C)c(C)c1-c1cc(F)cc(C2(NC(=O)c3ccccc3CNC(=O)C(=O)NCC#Cc3nccs3)CC2)c1 [Example 490] | < 1000 nM | < 100 nM |
| C[C@@H](NC(=O)c1ccccc1CNC(=O)C(=O)NCC#Cc1nccs1)c1cc(F)cc(-c2cnn(C3CC3)c2)c1 [Example 491] | < 1000 nM | < 100 nM |
| C[C@@H](NC(=O)c1ccccc1CNC(=O)C(=O)NCC#Cc1nccs1)c1cc(F)cc(-c2cnn(C(F)F)c2)c1 [Example 492] | < 1000 nM | < 100 nM |
| C[C@@H](C#Cc1nccs1)NC(=O)C(=O)NCc1ccccc1C(=O)NC1(c2cc(Cl)cc(-c3ncco3)c2)CC1 [Example 493] | < 1000 nM | < 100 nM |
| C[C@@H](C#Cc1nccs1)NC(=O)C(=O)NCc1ccccc1C(=O)NC1(c2cc(Cl)cc(-c3nccs3)c2)CC1 [Example 494] | < 1000 nM | < 100 nM |
| C[C@@H](C#Cc1nccs1)NC(=O)C(=O)NCc1ccccc1C(=O)N[C@H](C)c1cc(F)cc(-c2cnn(C3CC3)c2)c1 [Example 495] | < 1000 nM | < 100 nM |

| Structure (SMILES) | EC50 [1] | IC50 [2] |
| --- | --- | --- |
| C[C@@H](C#Cc1nccs1)NC(=O)C(=O)NCc1ccccc1C(=O)N[C@H](C)c1cc(F)cc(-c2cnn(C(F)F)c2)c1 [Example 496] | < 1000 nM | < 100 nM |
| N#CN1CC[C@H]1CNC(=O)C(=O)NCc1ccccc1C(=O)NC1(c2cccc3ccccc23)CC1 [Example 500] | < 1000 nM | < 100 nM |
| N#CN1CCC[C@H]1CNC(=O)C(=O)NCc1ccccc1C(=O)NC1(c2cccc3ccccc23)CC1 [Example 504] | < 1000 nM | < 100 nM |
| N#CN1CC[C@@H](CNC(=O)C(=O)NCc2ccccc2C(=O)NC2(c3cccc4ccccc34)CC2)C1 [Example 509] | < 1000 nM | < 100 nM |
| O=C(C#CCNC(=O)C(=O)NCc1ccccc1C(=O)NC1(c2cccc3ccccc23)CC1)NC1CC(F)(F)C1 [Example 519] | < 1000 nM | < 100 nM |
| O=C(C#CCNC(=O)C(=O)NCc1ccccc1C(=O)NC1(c2cccc3ccccc23)CC1)N[C@H]1CC[C@H](C(F)(F)F)CC1 [Example 520] | < 1000 nM | < 100 nM |
| CON(C)C(=O)C#CCNC(=O)C(=O)NCc1ccccc1C(=O)NC1(c2cccc3ccccc23)CC1 [Example 524] | < 1000 nM | < 100 nM |
| O=C(NCC#CC(=O)N1CCCO1)C(=O)NCc1ccccc1C(=O)NC1(c2cccc3ccccc23)CC1 [Example 526] | < 1000 nM | < 100 nM |
| COc1cc(C2(NC(=O)c3ccccc3CNC(=O)C(=O)N[C@@H](C)C#Cc3ncccn3)CC2)cc2cn(C3CC3)nc12 [Example 532] | < 1000 nM | < 100 nM |
| CC(C)OC(=O)/C=C/CNC(=O)C(=O)NCc1ccccc1C(=O)NC1(c2cccc3ccccc23)CC1 [Example 538] | 1000 to 10000 nM | 100 to 1000 nM |
| O=C(/C=C/CNC(=O)C(=O)NCc1ccccc1C(=O)NC1(c2cccc3ccccc23)CC1)NC1CC1 [Example 541] | > 10000 nM | 100 to 1000 nM |
| N#CCNC(=O)C(=O)NCc1ccccc1C(=O)NC1(c2cccc(-c3ccc(F)cc3)c2)CC1 [Example 543] | > 10000 nM | 100 to 1000 nM |
| N#CCNC(=O)C(=O)NCc1ccccc1C(=O)NC1(c2cccc(Br)c2)CC1 [Example 545] | > 10000 nM | 100 to 1000 nM |
| O=C(NC/C=C/C(=O)N1CC(F)(F)C1)C(=O)NCc1ccccc1C(=O)NC1(c2cccc3ccccc23)CC1 [Example 554] | 1000 to 10000 nM | 100 to 1000 nM |
| O=C(NC/C=C/C(=O)N1CC[C@H](O)C1)C(=O)NCc1ccccc1C(=O)NC1(c2cccc3ccccc23)CC1 [Example 555] | 1000 to 10000 nM | 100 to 1000 nM |
| COCCN(C)C(=O)/C=C/CNC(=O)C(=O)NCc1ccccc1C(=O)NC1(c2cccc3ccccc23)CC1 [Example 556] | 1000 to 10000 nM | 100 to 1000 nM |
| O=C(NC/C=C/C(=O)N1CCCC1)C(=O)NCc1ccccc1C(=O)NC1(c2cccc3ccccc23)CC1 [Example 557] | 1000 to 10000 nM | < 100 nM |
| CCN(OC)C(=O)/C=C/CNC(=O)C(=O)NCc1ccccc1C(=O)NC1(c2cccc3ccccc23)CC1 [Example 558] | 1000 to 10000 nM | 100 to 1000 nM |
| CNN(C)C(=O)/C=C/CNC(=O)C(=O)NCc1ccccc1C(=O)NC1(c2cccc3ccccc23)CC1 [Example 559] | 1000 to 10000 nM | 100 to 1000 nM |
| CONC(=O)/C=C/CNC(=O)C(=O)NCc1ccccc1C(=O)NC1(c2cccc3ccccc23)CC1 [Example 560] | 1000 to 10000 nM | 100 to 1000 nM |
| O=C(/C=C/CNC(=O)C(=O)NCc1ccccc1C(=O)NC1(c2cccc3ccccc23)CC1)Nc1ccccc1 [Example 561] | 1000 to 10000 nM | 100 to 1000 nM |
| O=C(NC/C=C/C(=O)N1CC[C@@H](O)C1)C(=O)NCc1ccccc1C(=O)NC1(c2cccc3ccccc23)CC1 [Example 563] | > 10000 nM | < 100 nM |
| N#CC1(NC(=O)/C=C/CNC(=O)C(=O)NCc2ccccc2C(=O)NC2(c3cccc4ccccc34)CC2)CC1 [Example 564] | 1000 to 10000 nM | 100 to 1000 nM |
| O=C(NC/C=C/C(=O)N1CCCCO1)C(=O)NCc1ccccc1C(=O)NC1(c2cccc3ccccc23)CC1 [Example 566] | 1000 to 10000 nM | 100 to 1000 nM |
| O=C(NC/C=C/C(=O)n1cccn1)C(=O)NCc1ccccc1C(=O)NC1(c2cccc3ccccc23)CC1 [Example 567] | 1000 to 10000 nM | 100 to 1000 nM |
